Experimental data: ChEMBL document CHEMBL6078687 (J Med Chem, 2024)

test: Inhibition of neuraminidase in Influenza A virus A/Babol/36/2005 H3N2 using MUNANA as substrate incubated for 40 mins by […] based assay

SMILES	IC50 [µM]
CCC(CC)O[C@@H]1C=C(C(=O)O)C[C@H](NCc2cccc(OCc3cccc(B(O)O)c3)c2)[C@H]1NC(C)=O	4.37
CCC(CC)O[C@@H]1C=C(C(=O)O)C[C@H](NCc2ccc(OCc3ccc(B(O)O)cc3)c(Br)c2)[C@H]1NC(C)=O	17.1
CCC(CC)O[C@@H]1C=C(C(=O)O)C[C@H](NCc2ccc(-c3cccs3)cc2OC)[C@H]1NC(C)=O	2.1
CCC(CC)O[C@@H]1C=C(C(=O)O)C[C@H](NCc2ccccc2OCc2ccc(B(O)O)cc2)[C@H]1NC(C)=O	8.48
CCC(CC)O[C@@H]1C=C(C(=O)O)C[C@H](NCc2ccc(OCc3cccc(B(O)O)c3)c(B(O)O)c2)[C@H]1NC(C)=O	1.78
CCC(CC)O[C@@H]1C=C(C(=O)O)C[C@H](NCc2cccc(C(=O)Nc3cccc(B(O)O)c3)c2)[C@H]1NC(C)=O	0.23
CCC(CC)O[C@@H]1C=C(C(=O)O)C[C@H](NCc2ccc(C(=O)Nc3cccc(B(O)O)c3)cc2)[C@H]1NC(C)=O	17.1
CCC(CC)O[C@@H]1C=C(C(=O)O)C[C@H](NCc2ccc(OCc3cccc(B(O)O)c3)cc2Br)[C@H]1NC(C)=O	0.47
CCC(CC)O[C@@H]1C=C(C(=O)O)C[C@H](NCc2c(C)cc(OCc3ccc(B(O)O)cc3)cc2C)[C@H]1NC(C)=O	0.74
CCC(CC)O[C@@H]1C=C(C(=O)O)C[C@H](NCc2ccc(Oc3ccc(B(O)O)cc3)cc2)[C@H]1NC(C)=O	1.45

test: Inhibition of neuraminidase in Influenza A virus A/Goose/Guangdong/SH7/2013 H5N1 using MUNANA as substrate incubated for 40 mins by […] based assay

SMILES	IC50 [µM]
CCC(CC)O[C@@H]1C=C(C(=O)O)C[C@H](NCc2cccc(OCc3cccc(B(O)O)c3)c2)[C@H]1NC(C)=O	4.91
CCC(CC)O[C@@H]1C=C(C(=O)O)C[C@H](NCc2ccc(OCc3ccc(B(O)O)cc3)c(Br)c2)[C@H]1NC(C)=O	933
CCC(CC)O[C@@H]1C=C(C(=O)O)C[C@H](NCc2ccc(-c3cccs3)cc2OC)[C@H]1NC(C)=O	1.65
CCC(CC)O[C@@H]1C=C(C(=O)O)C[C@H](NCc2ccccc2OCc2ccc(B(O)O)cc2)[C@H]1NC(C)=O	1.29
CCC(CC)O[C@@H]1C=C(C(=O)O)C[C@H](NCc2ccc(OCc3cccc(B(O)O)c3)c(B(O)O)c2)[C@H]1NC(C)=O	0.075
CCC(CC)O[C@@H]1C=C(C(=O)O)C[C@H](NCc2cccc(C(=O)Nc3cccc(B(O)O)c3)c2)[C@H]1NC(C)=O	0.41
CCC(CC)O[C@@H]1C=C(C(=O)O)C[C@H](NCc2ccc(C(=O)Nc3cccc(B(O)O)c3)cc2)[C@H]1NC(C)=O	1.17
CCC(CC)O[C@@H]1C=C(C(=O)O)C[C@H](NCc2ccc(OCc3cccc(B(O)O)c3)cc2Br)[C@H]1NC(C)=O	0.081
CCC(CC)O[C@@H]1C=C(C(=O)O)C[C@H](NCc2c(C)cc(OCc3ccc(B(O)O)cc3)cc2C)[C@H]1NC(C)=O	0.27
CCC(CC)O[C@@H]1C=C(C(=O)O)C[C@H](NCc2ccc(Oc3ccc(B(O)O)cc3)cc2)[C@H]1NC(C)=O	0.036
